Laboratory results as given in US20110118238A1, “2-ANILINOPURIN-8-ONES AS INHIBITORS OF TTK/MPS1 FOR THE TREATMENT OF PROLIFERATIVE DISORDERS” (ASTRAZENECA AB, priority 2007, published 2011).

Assays:
[1] = target: T1, N-terminal GST tagged full length human TTK kinase (Homo sapiens, UniProt P33981); assay: In Vitro TTK Kinase Assay 1 (AlphaScreen); format: biochemical; details: recombinant TTK, 10 μM ATP, read-out: EAA: Enzyme Assay Activity (In Vitro TTK kinase assay 1)
T1 construct: N-terminal GST tagged full length human TTK kinase; GST (N); made in house; host or cells: insect cells
T1 sequence (P33981 1-857): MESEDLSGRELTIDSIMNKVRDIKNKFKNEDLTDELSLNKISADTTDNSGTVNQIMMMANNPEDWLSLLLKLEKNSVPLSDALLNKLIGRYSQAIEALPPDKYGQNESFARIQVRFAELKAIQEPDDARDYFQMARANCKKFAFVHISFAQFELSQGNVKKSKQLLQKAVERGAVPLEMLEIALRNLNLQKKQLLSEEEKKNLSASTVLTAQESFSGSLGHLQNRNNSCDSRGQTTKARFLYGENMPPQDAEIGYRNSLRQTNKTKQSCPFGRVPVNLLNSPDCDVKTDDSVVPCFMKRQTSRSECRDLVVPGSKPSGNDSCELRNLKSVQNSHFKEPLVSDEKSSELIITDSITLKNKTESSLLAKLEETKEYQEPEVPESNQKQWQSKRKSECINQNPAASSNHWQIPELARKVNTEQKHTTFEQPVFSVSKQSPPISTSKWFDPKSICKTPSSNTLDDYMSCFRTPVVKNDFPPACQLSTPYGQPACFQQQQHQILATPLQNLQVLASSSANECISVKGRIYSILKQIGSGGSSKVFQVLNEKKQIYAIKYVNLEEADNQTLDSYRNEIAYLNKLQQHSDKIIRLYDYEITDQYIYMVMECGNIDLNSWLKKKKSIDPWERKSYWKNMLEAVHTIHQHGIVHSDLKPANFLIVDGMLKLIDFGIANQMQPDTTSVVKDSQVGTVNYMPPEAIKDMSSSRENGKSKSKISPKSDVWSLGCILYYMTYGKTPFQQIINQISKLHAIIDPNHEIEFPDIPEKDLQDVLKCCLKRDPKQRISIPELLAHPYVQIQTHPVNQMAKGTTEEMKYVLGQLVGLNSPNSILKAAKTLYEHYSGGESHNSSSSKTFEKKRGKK
Description: Aliquots (2 μL) of each compound dilution were placed into wells of a Greiner 384-well low volume white polystyrene plate (Greiner Bio-one).
The resultant signals arising from laser light excitation at 680 nm were read using a Packard Envision instrument.

[2] = target: T1, N-terminal GST tagged full length human TTK kinase; assay: In Vitro TTK Kinase Assay 2 (Caliper LabChip LC3000); format: biochemical; details: recombinant TTK, 12 μM ATP, read-out: EAA2: Enzyme Assay Activity (In Vitro TTK kinase assay 2)
Description: Each reaction was stopped by the addition of EDTA to a concentration of 40 mM in a solution which also comprised 0.1% coating reagent (Caliper LS), 100 mM HEPES pH 7.5, 0.015% v/v Brij™-35 and 5% DMSO. The stopped enzyme reactions were sipped through capillaries onto a Caliper chip where the peptide substrate and phosphorylated product were separated and detected via laser-induced fluorescence.

Row | Compound | IC50 [1] [nM] | IC50 [2] [nM]
1 | 4-[(9-Cyclopentyl-7-ethyl-8-oxo-8,9-dihydro-7H-purin-2-yl)-amino]-3-methoxy-N-(1-methylpiperidin-4-yl)benzamide [Example 33] | 398 | 38.2
2 | CN1CCC(NC(=O)c2ccc(Nc3ncc4c(n3)n(C3CCCC3)c(=O)n4C)cc2F)CC1 [Example 8, 4-[(9-Cyclopentyl-7-methyl-8-oxo-8,9-dihydro-7H-purin-2-yl)-amino]-2-fluoro-N-(1-methylpiperidin-4-yl)benzamide] | 3910 | 633
3 | Cn1c(=O)n(C2CCCC2)c2nc(Nc3ccc(S(N)(=O)=O)cc3)ncc21 [Example 11, 4-[(9-Cyclopentyl-7-methyl-8-oxo-8,9-dihydro-7H-purin-2-yl)-amino]benzenesulfonamide] | 9650 | 167
4 | CN1CCC(NC(=O)c2ccc(Nc3ncc4c(n3)n(C3CCCC3)c(=O)n4C)c(Cl)c2)CC1 [Example 15, 3-Chloro-4-[(9-cyclopentyl-7-methyl-8-oxo-8,9-dihydro-7H-purin-2-yl)amino]-N-(1-methylpiperidin-4-yl)benzamide] | 3230 | 235
5 | CN1C2CCCC1CC(NC(=O)c1ccc(Nc3ncc4c(n3)n(C3CCCC3)c(=O)n4C)c(F)c1)C2 (centres unmarked) [Example 16, 4-[(9-Cyclopentyl-7-methyl-8-oxo-8,9-dihydro-7H-purin-2-yl)-amino]-3-fluoro-N-(9-methyl-9-azabicyclo[3.3.1]non-3-yl)-benzamide] | 1680 | 313
6 | CCN1CCC(NC(=O)c2cc(F)c(Nc3ncc4c(n3)n(C3CCCC3)c(=O)n4C)cc2F)CC1 [Example 17, 4-[(9-Cyclopentyl-7-methyl-8-oxo-8,9-dihydro-7H-purin-2-yl)-amino]-N-(1-ethylpiperidin-4-yl)-2,5-difluorobenzamide] | 9240 | 2010
7 | COc1cc(C2CCN(C)CC2)ccc1Nc1ncc2c(n1)n(C(C)C)c(=O)n2C [Example 47, 9-Isopropyl-2-{[2-methoxy-4-(1-methylpiperidin-4-yl)phenyl]-amino}-7-methyl-7,9-dihydro-8H-purin-8-one] | 5650 | 
8 | COc1cc(N2CCN(C)CC2)ccc1Nc1ncc2c(n1)n(C1CCNCC1)c(=O)n2C [Example 70, 2-{[2-Methoxy-4-(4-methylpiperazin-1-yl)phenyl]amino}-7-methyl-9-piperidin-4-yl-7,9-dihydro-8H-purin-8-one] |  | 5360
9 | Cn1c(=O)n(C2CCCC2)c2nc(Nc3ccc(C(=O)c4ccccc4)cc3)ncc21 [Example 71, 2-[(4-Benzoylphenyl)amino]-9-cyclopentyl-7-methyl-7,9-dihydro-8H-purin-8-one] |  | 586
10 | Cn1c(=O)n(C2CCCC2)c2nc(Nc3ccc(Oc4ccccc4)cc3)ncc21 [Example 75, 9-Cyclopentyl-7-methyl-2-[(4-phenoxyphenyl)amino]-7,9-dihydro-8H-purin-8-one] |  | 523
11 | Cn1c(=O)n(C2CCCC2)c2nc(Nc3ccc(Cc4ccccc4)cc3)ncc21 [Example 78, 2-[(4-Benzylphenyl)amino]-9-cyclopentyl-7-methyl-7,9-dihydro-8H-purin-8-one] |  | 195
12 | Cn1c(=O)n(C2CCCC2)c2nc(Nc3ccc(N4CCOCC4)cc3)ncc21 [Example 80, 9-Cyclopentyl-7-methyl-2-[(4-morpholin-4-ylphenyl)amino]-7,9-dihydro-8H-purin-8-one] |  | 140

The remaining compounds from weak to strong by IC50 [2], led by results:

Row | IC50 [1] [nM] | IC50 [2] [nM] | Compound
13 |  | 109 | Cn1c(=O)n(C2CCCC2)c2nc(Nc3ccc(N4CCCCC4)cc3)ncc21 [Example 77, 9-Cyclopentyl-7-methyl-2-[(4-piperidin-1-ylphenyl)amino]-7,9-dihydro-8H-purin-8-one]
14 |  | 106 | Cn1c(=O)n(C2CCCC2)c2nc(Nc3ccc(CCO)cc3)ncc21 [Example 73, 9-Cyclopentyl-2-{[4-(2-hydroxyethyl)phenyl]amino}-7-methyl-7,9-dihydro-8H-purin-8-one]
15 | 396 | 78 | COc1cc(N2CCOCC2)ccc1Nc1ncc2c(n1)n(C1CCCC1)c(=O)n2C [Example 6, 9-Cyclopentyl-2-[(2-methoxy-4-morpholin-4-ylphenyl)-amino]-7-methyl-7,9-dihydro-8H-purin-8-one]
16 | 1560 | 69.7 | COc1cc(C(=O)NC2CC3CCCC(C2)N3C)ccc1Nc1ncc2c(n1)n(C1CCCC1)c(=O)n2C (centres unmarked) [Example 14, 4-[(9-Cyclopentyl-7-methyl-8-oxo-8,9-dihydro-7H-purin-2-yl)-amino]-3-methoxy-N-(9-methyl-9-azabicyclo[3.3.1]non-3-yl)benzamide]
17 |  | 65.3 | COc1cc(C(=O)N[C@@H]2CCNC2)ccc1Nc1ncc2c(n1)n(C1CCCC1)c(=O)n2C [Example 68, 4-[(9-Cyclopentyl-7-methyl-8-oxo-8,9-dihydro-7H-purin-2-yl)-amino]-3-methoxy-N-[(3R)-pyrrolidin-3-yl]benzamide]
18 | 622 | 64.6 | COc1cc(C(=O)NC2CCN(C)CC2)ccc1Nc1ncc2c(n1)n(C1CCCC1)c(=O)n2C [Example 1]
19 |  | 45.2 | Cn1c(=O)n(C2CCCC2)c2nc(Nc3ccc(-n4cccn4)cc3)ncc21 [Example 79, 9-Cyclopentyl-7-methyl-2-{[4-(1H-pyrazol-1-yl)phenyl]amino}-7,9-dihydro-8H-purin-8-one]
20 |  | 41.3 | COc1cc(C(=O)N[C@H]2CCNC2)ccc1Nc1ncc2c(n1)n(C1CCCC1)c(=O)n2C [Example 69, 4-[(9-Cyclopentyl-7-methyl-8-oxo-8,9-dihydro-7H-purin-2-yl)-amino]-3-methoxy-N-[(3S)-pyrrolidin-3-yl]benzamide]
21 | 328 | 32.2 | CNC(=O)c1ccc(Nc2ncc3c(n2)n(C2CCCC2)c(=O)n3C)c(OC)c1 [Example 9, 4-[(9-Cyclopentyl-7-methyl-8-oxo-8,9-dihydro-7H-purin-2-yl)amino]-3-methoxy-N-methylbenzamide]
22 | 714 | 30.7 | COc1cc(NS(C)(=O)=O)ccc1Nc1ncc2c(n1)n(C1CCCC1)c(=O)n2C [Example 7, N-{4-[(9-Cyclopentyl-7-methyl-8-oxo-8,9-dihydro-7H-purin-2-yl)-amino]-3-methoxyphenyl}methanesulfonamide]
23 |  | 29.1 | CC(C)Oc1ccc(Nc2ncc3c(n2)n(C2CCCC2)c(=O)n3C)cc1 [Example 74, 9-Cyclopentyl-2-[(4-isopropoxyphenyl)amino]-7-methyl-7,9-dihydro-8H-purin-8-one]
24 |  | 27 | Cn1c(=O)n(C2CCCC2)c2nc(Nc3ccc(N4CCOCC4)c(Cl)c3)ncc21 [Example 72, 2-[(3-Chloro-4-morpholin-4-ylphenyl)amino]-9-cyclopentyl-7-methyl-7,9-dihydro-8H-purin-8-one]
25 | 213 | 22.9 | COc1cc(N2CCN(C)CC2)ccc1Nc1ncc2c(n1)n(C1CCCC1)c(=O)n2C [Example 4, 9-Cyclopentyl-2-{[2-methoxy-4-(4-methylpiperazin-1-yl)-phenyl]amino}-7-methyl-7,9-dihydro-8H-purin-8-one]
26 | 1050 | 19.4 | COc1cc(C(=O)N2CCCC2)ccc1Nc1ncc2c(n1)n(C1CCCC1)c(=O)n2C [Example 10, 9-Cyclopentyl-2-{[2-methoxy-4-(pyrrolidin-1-ylcarbonyl)-phenyl]amino}-7-methyl-7,9-dihydro-8H-purin-8-one]
27 |  | 18.3 | Cn1c(=O)n(C2CCCC2)c2nc(Nc3ccc(-c4cnco4)cc3)ncc21 [Example 76, 9-Cyclopentyl-7-methyl-2-{[4-(1,3-oxazol-5-yl)phenyl]amino}-7,9-dihydro-8H-purin-8-one]
28 | 1280 | 16.6 | Cc1cc(S(N)(=O)=O)ccc1Nc1ncc2c(n1)n(C1CCCC1)c(=O)n2C [Example 2, 4-[(9-Cyclopentyl-7-methyl-8-oxo-8,9-dihydro-7H-purin-2-yl)-amino]-3-methylbenzenesulfonamide]
29 | 1170 | 15.2 | Cn1c(=O)n(C2CCCC2)c2nc(Nc3ccc(N4CCS(=O)(=O)CC4)cc3)ncc21 [Example 12, 9-Cyclopentyl-2-{[4-(1,1-dioxidothiomorpholin-4-yl)-phenyl]-amino}-7-methyl-7,9-dihydro-8H-purin-8-one]
